In brackets after ≈: the same amount, converted by molar mass. Read-outs that look alike come from different tables or passages of the source.
How the values were obtained:
E. faecalis FA2–2 = test: MIC against wild-type E. faecalis FA2-2 (FabI and FabK); assay type: cell-based, Enterococcus faecalis; settings: E. faecalis FA2-2, possesses both FabI and FabK; for MIC: Enterococcus faecalis, read-out: MIC Ef wild-type
Procedure: (§1) Compounds were twofold serially diluted (100–0.2 μg/mL) across a 96-well plate in 100 μL of media used for the specific organism (Table S4). For anaerobes, plates were incubated anaerobically at 37 °C for 1 h and then inoculated with approximately 10^5 to 10^6 CFU/well. Plates were incubated at 37 °C for up to 48 h, and MICs were read by visual inspection.

F. nucleatum 23726 [1] = test: MIC against F. nucleatum 23726; assay type: cell-based, Fusobacterium nucleatum; settings: three biological replicates; for MIC Fn 23726: F. nucleatum 23726 wild-type; for MIC: Fusobacterium nucleatum, 23726, F. nucleatum 23726 wild-type, read-out: MIC Fn 23726
Procedure: as §1

E. faecalis FA2–2ΔfabI = test: MIC against E. faecalis FA2-2 fabK+ (ΔfabI, possesses only FabK); assay type: cell-based, Enterococcus faecalis; settings: for MIC: Enterococcus faecalis, read-out: MIC Ef fabK+, E. faecalis FA2-2 ΔfabI, possesses only FabK; for MIC Ef fabK+: E. faecalis FA2-2 ΔfabI, possesses only FabK
Procedure: as §1

[2] = tested on: C. difficile infection (CDI); settings: cited from earlier work
E. faecalis FA2–2ΔfabK = test: MIC against E. faecalis FA2-2 fabI+ (ΔfabK, possesses only FabI); assay type: cell-based, Enterococcus faecalis; settings: E. faecalis FA2-2 ΔfabK, possesses only FabI
Procedure: as §1

CdFabK = tested on: CdFabK; design: method as in PMID 37224699; settings: previously reported, cited from earlier work
FnFabK = FnFabK (Fusobacterium nucleatum subsp. nucleatum, UniProt Q8RGV3); test: biochemical; settings: for IC50: IC50 against FnFabK
Procedure: Incubation lasted for a total of 10 min before the addition of crotonyl-CoA substrate, and the reaction was initiated by the addition of NADH for a final assay volume of 100 μL. The oxidation of NADH to NAD+ was measured by tracking fluorescence (340 nm/460 nm) with a Biotek Synergy H1 microplate reader in 15 s intervals for a total of 10 min to monitor the rate of reaction. The reaction was conducted in Greiner Bio-One 384-well μClear Bottom Polystyrene Microplates. […] Measurements were conducted in triplicate, and IC50’s were calculated via GraphPad Prism 9.1.2 using four-parameter logistic (Hill) curve analysis using equation Y = bottom + (top – bottom)/[1 + 10 (Log IC50 – X) × Hill Slope], where X is the logarithm of the dose and Y is the response. The assay concentrations of the cofactor, NADH, and substrate, crotonyl-CoA, were also determined via GraphPad Prism 9.1.2 using the substrate inhibition model to determine Km(app).

[3] = Cytotoxicity against Vero cells (resazurin viability); assay type: cell-based; settings: monkey, Vero epithelial cells, maximum tested concentration 100 μg/mL
Procedure: This was done as described[36] using colorectal carcinoma HCT116 and Vero epithelial cells cultured at 37 °C in 5% CO2 in Dulbecco’s modified Eagle’s medium (DMEM) with 4.5 g/L glucose and L-glutamine. The medium was supplemented with 10% v/v FetalGro (Rocky Mountain Biologicals). Approximately 25,000/well were aliquoted into black 96-well plates (Greiner Bio-One) and incubated overnight, before being resuspended in DMEM supplemented with 20% Gibco KnockOut Serum Replacement (Thermo Fisher Scientific). Compounds (100–1.6 μg/mL) were then added to the cells and incubated for 24 h at 37 °C and 5% CO2. Cell viability was analyzed using resazurin as described.[36]

F. nucleatum 23726 [4] = test: Growth in FAS-II inhibitor with or without exogenous fatty acids; assay type: cell-based, Fusobacterium nucleatum; settings: fatty acid mixture of Table S2
Procedure: To plates containing twofold serial dilutions of compounds, exponential phase cultures were added to a final OD600nm of 0.1. Plates containing F. nucleatum in Columbia broth were incubated at 37 °C inside of a Tecan Infinite 200 Pro, which was inside an anaerobic chamber; growth kinetics for Streptococcus spp. in brain heart infusion broth were done aerobically in the same Tecan instrument.

[5] = tested on: F. nucleatum 23726 overexpression strains; test: MIC against F. nucleatum 23726 transformed with empty vector, fabK or fabX under ATc-inducible promoter; assay type: cell-based, Fusobacterium nucleatum; settings: Fusobacterium nucleatum
Procedure: The transformation of F. nucleatum 23726 was performed via electroporation as previously described,[41] except that Columbia broth was used. (i) Antisense vector: F. nucleatum gene silencing vector, pHFK2, was developed by inserting the ATc inducible paired-termini antisense sequences from the clostridial vector pMSPT into pCWU6, a F. nucleatum vector.[56] pCWU6 was amplified by PCR (CloneAmp polymerase) and recombined with the BamHI and KpnI fragments of pMSPT containing the Tet promoter and paired-termini sequences.[26] Antisense nucleotides targeting either 50 bp upstream and downstream of the fabK start codon (FabKAS1) or 25 bp upstream and 75 bp downstream (FabKAS2) were cloned into SphI and XhoI restriction sites of pHFK2. (ii) Complementation vectors: these were generated by PCR amplifying the fabK promoter and gene and introducing KpnI and HindIII restriction sites at 5′ and 3′ ends, respectively. Purified PCR amplicons were inserted into the KpnI and HindIII sites of pCWU6. (iii) Overexpression vectors: the corresponding gene, fabK or fabX, was amplified via PCR, introducing HindIII or SacI restriction sites to the 5′ end, respectively. BamHI restriction sites were introduced to the 3′ end of both. Purified PCR amplicons were inserted into the respective restriction sites of pHFK2. (iv) Allelic exchange vector: vector, pCWU8-FabK, was generated using a previously described protocol,[41],[56] whereby 1-kb regions upstream and downstream of fabK were cloned into the suicide vector pCWU8 using a Gibson Assembly Cloning Kit (New England Biolabs). The recombinant vector was transformed into strain F. nucleatum 23726ΔgalK, and successful integrants were collected that were resistant to thiamphenicol (5 μg/mL). Since the suicide vector expresses GalK, which is toxic in the presence of 2-deoxy-D-galactose (2-DG), the compound 2-DG (0.25% w/v) was added to counter-select for mutants that underwent a second homologous recombination. Ten resulting colonies were then tested for deletion of fabK via PCR, using primers in Table S7. The experiment was independently performed twice for a total of 20 colonies screened for fabK deletion. All experiments were done anaerobically at 37 °C in tryptic soy broth supplemented with 1% w/v peptone and 0.25% w/v autoclaved L-cysteine hydrochloride (TSPC) or TSPC agar with thiamphenicol or 2-DG.
as §1

Chain of FnFabK (Q8RGV3 entry or part of it): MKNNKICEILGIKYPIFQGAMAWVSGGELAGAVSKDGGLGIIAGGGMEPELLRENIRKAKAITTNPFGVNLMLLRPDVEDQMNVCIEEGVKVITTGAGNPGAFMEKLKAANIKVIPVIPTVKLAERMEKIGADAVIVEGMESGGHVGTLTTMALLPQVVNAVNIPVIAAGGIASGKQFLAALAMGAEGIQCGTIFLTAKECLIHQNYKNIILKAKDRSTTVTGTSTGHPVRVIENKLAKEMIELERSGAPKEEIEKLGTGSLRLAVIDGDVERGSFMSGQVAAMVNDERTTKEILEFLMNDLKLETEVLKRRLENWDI

Structure (SMILES) | MIC Fn 23726 (F. nucleatum 23726 [1]) | MIC Ef fabI+ (E. faecalis FA2–2ΔfabK) | MIC Ef wild-type (E. faecalis FA2–2) | MIC Ef fabK+ (E. faecalis FA2–2ΔfabI) | further results
O=C(NCc1nc(-c2ccc(Br)cc2)c[nH]1)Nc1ncc(Sc2ccccn2)s1 [Compound 296, 1-[4-(4-bromophenyl)-1H-imidazole-2-yl]methyl-3-[5-(pyridin-2-ylthio)thiazol-2-yl]urea] | 100 µg/mL (≈ 205 µM) |  |  |  | MIC (E. faecalis FA2–2): 100 µg/mL (≈ 205 µM); MIC (F. nucleatum 23726 [1]): > 100 µg/mL; MIC (E. faecalis FA2–2ΔfabI): < 0.1 µg/mL; Efficacy in treating C. difficile infection (CDI) in mice [2]: efficacious
O=C(NCc1nc(-c2ccc(Br)cc2)c[nH]1)Nc1nc2ccc(F)cc2s1 [Compound 670] | 100 µg/mL (≈ 224 µM) | 100 µg/mL (≈ 224 µM) | 100 µg/mL (≈ 224 µM) | <0.1 µg/mL | 
O=C(NCc1nc(-c2ccc(Br)cc2)c[nH]1)Nc1nc2ccc(Br)cc2s1 [Compound 671] | 25 µg/mL (≈ 49.3 µM) | 50 µg/mL (≈ 98.6 µM) | 50 µg/mL (≈ 98.6 µM) | <0.1 µg/mL | 
O=C(NCc1nc(-c2ccc(Br)cc2)c[nH]1)Nc1nc2c(F)cc(F)cc2s1 [Compound 674] | 100 µg/mL (≈ 215 µM) | 100 µg/mL (≈ 215 µM) | 100 µg/mL (≈ 215 µM) | <0.1 µg/mL | 
O=C(NCc1nc2ccccc2[nH]1)Nc1ncc(Sc2ccccn2)s1 [Compound 675] | 100 µg/mL (≈ 261 µM) | 100 µg/mL (≈ 261 µM) | 100 µg/mL (≈ 261 µM) | 0.8 µg/mL (≈ 2.09 µM) | 
O=C(NCc1nc(-c2ccccc2)n[nH]1)Nc1ncc(Sc2ccccn2)s1 [Compound 676] | 100 µg/mL (≈ 244 µM) | 100 µg/mL (≈ 244 µM) | 100 µg/mL (≈ 244 µM) | 0.2 µg/mL (≈ 0.488 µM) | 
O=C(NCc1nc(-c2ccc(Br)cc2)c[nH]1)Nc1ncc(Sc2ncccn2)s1 [Compound 679] | 6.3 µg/mL (≈ 12.9 µM) | 100 µg/mL (≈ 205 µM) | 100 µg/mL (≈ 205 µM) | <0.1 µg/mL | 
O=C(NCc1nc(-c2ccc(Br)cc2)c[nH]1)Nc1ncc(Sc2ccc3ccccc3n2)s1 [Compound 680] | 100 µg/mL (≈ 186 µM) | 100 µg/mL (≈ 186 µM) | 100 µg/mL (≈ 186 µM) | <0.1 µg/mL | 
O=C(NCc1nc(-c2ccc(Br)cc2)c[nH]1)Nc1ncc(Sc2ccc(Cl)cn2)s1 [Compound 682] | 3.1 µg/mL (≈ 5.94 µM) | 100 µg/mL (≈ 192 µM) | 100 µg/mL (≈ 192 µM) | <0.1 µg/mL | 
O=C(NCc1nc(-c2ccc(Br)cc2)c[nH]1)Nc1ncc(Sc2ncccc2C(F)(F)F)s1 [Compound 683] | 3.1 µg/mL (≈ 5.58 µM) | 100 µg/mL (≈ 180 µM) | 100 µg/mL (≈ 180 µM) | <0.1 µg/mL | 
O=C(NCc1nc(-c2ccc(Br)cc2)c[nH]1)Nc1ncc(Sc2ccc(C(F)(F)F)cn2)s1 [Compound 684] | 3.1 µg/mL (≈ 5.58 µM) | 100 µg/mL (≈ 180 µM) | 100 µg/mL (≈ 180 µM) | <0.1 µg/mL | 
O=C(NCc1nc(-c2ccc(Br)cc2)c[nH]1)Nc1nc2cc(Cl)ccc2s1 [Compound 689] | 6.3 µg/mL (≈ 13.6 µM) | 25 µg/mL (≈ 54 µM) | 25 µg/mL (≈ 54 µM) | <0.1 µg/mL | 
CCOc1ccc2sc(NC(=O)NCc3nc(-c4ccc(Br)cc4)c[nH]3)nc2c1 [Compound 690] | 25 µg/mL (≈ 52.9 µM) | 25 µg/mL (≈ 52.9 µM) | 25 µg/mL (≈ 52.9 µM) | <0.1 µg/mL | 
O=C(NCc1nc(-c2ccc(Br)cc2)c[nH]1)Nc1nc2ccccc2s1 [Compound 701] |  |  |  |  | IC50 against CdFabK, equivalent concentration (CdFabK): 0.8 µg/mL; IC50 (CdFabK; read-out: IC50 against CdFabK): 1.88 µM; IC50 (FnFabK; equivalent concentration, conversion of the μM value): 10.7 µM; IC50 (FnFabK; purified FnFabK, three replicates): 10.6 µM; Hill coefficient (FnFabK inhibition) (FnFabK; four-parameter logistic fit): 1.06; MIC (E. faecalis FA2–2): 100 µg/mL (≈ 233 µM); MIC (F. nucleatum 23726 [1]): 1.6 µg/mL (≈ 3.74 µM); MIC (E. faecalis FA2–2ΔfabI): < 0.1 µg/mL
O=C(NCc1nc(-c2ccc(Br)cc2)c[nH]1)Nc1ncc(Sc2ccc(Br)cc2)s1 [Compound 702] | 100 µg/mL (≈ 177 µM) | 100 µg/mL (≈ 177 µM) | 100 µg/mL (≈ 177 µM) | <0.1 µg/mL | 
O=C(NCc1nc(-c2ccc(Br)cc2)c[nH]1)Nc1ncc(Sc2nc3ccccc3s2)s1 [Compound 703] | 100 µg/mL (≈ 184 µM) | 100 µg/mL (≈ 184 µM) | 100 µg/mL (≈ 184 µM) | <0.1 µg/mL | 
COc1cccc2c1C(=O)c1c(O)c3c(c(O)c1C2=O)C[C@@](O)(C(=O)CO)C[C@@H]3O[C@H]1C[C@H](N)[C@H](O)[C@H](C)O1 [doxorubicin, reference compound] |  |  |  |  | IC50 at 24 h [3]: 8.1 ± 1 µg/mL (≈ 14.9 µM)
C=C/C(C)=C/[C@@]1(C)SC(=O)C(C)=C1O [thiolactomycin, reference compound] |  |  |  |  | Effect of exogenous fatty acids on growth inhibition of F. nucleatum (F. nucleatum 23726 [4]): did not rescue; MIC ([5]; read-out: MIC, FabK overexpression, induced): 3.9 µg/mL; MIC ([5]; read-out: MIC, FabK overexpression, uninduced): 7.8 µg/mL; MIC ([5]; read-out: MIC, FabX overexpression, induced): 3.9 µg/mL; MIC ([5]; read-out: MIC, FabX overexpression, uninduced): 7.8 µg/mL; MIC ([5]; read-out: MIC, empty vector, induced): 7.8 µg/mL; MIC ([5]; read-out: MIC, empty vector, uninduced): 7.8 µg/mL
